# Measured values as given in patent US10189819B2, “Factor IXa inhibitors” (MERCK SHARP & DOHME CORP., priority 2014, dated 2019).
# Target: Factor IXa (Homo sapiens (Human), UniProt P00740)
# Experiment: Determination of inhibitory activity against Factor IXa (cleavage of fluorescent peptide CH3SO2-D-CHG-Gly-Arg-AFC)
# Assay type: biochemical
# Conditions: read-out: hFIXa IC50
# Description: Determination of Inhibitory Activity Against Factor IXa
# Formation of a clot to stem bleeding at a site of blood vessel injury involves the coordinated activity of a group of plasma proteins that initiate and propagate fibrin formation and subsequently protect fibrin from premature degradation. Factor IX is a key component of the plasma system that forms a fibrin clot at a site of vascular injury. The activity of Factor IXa is measured by monitoring the cleavage of the fluorescent peptide, CH3SO2-D-CHG-Gly-Arg-AFC.AcOH (“CHG” is cyclohexyl-glycine and “AFC” is trifluoro aminomethyl coumarin). Factor IXa cleaves the amide bond between Arg and AFC, thereby releasing the AFC fluorophore. The free AFC can be detected with a fluorescence detector at an excitation wavelength of 405 nm and emission wavelength of 510 nm.
# Chain of Factor IXa (P00740 227-461): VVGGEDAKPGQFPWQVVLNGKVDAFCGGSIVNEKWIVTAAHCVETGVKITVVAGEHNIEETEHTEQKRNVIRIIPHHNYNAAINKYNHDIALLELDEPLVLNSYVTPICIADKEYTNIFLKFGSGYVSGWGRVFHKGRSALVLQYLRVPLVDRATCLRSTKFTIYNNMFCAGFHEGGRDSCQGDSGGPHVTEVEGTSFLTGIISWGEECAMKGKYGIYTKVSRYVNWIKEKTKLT
# Chain of Factor IXa (P00740 47-191 partner): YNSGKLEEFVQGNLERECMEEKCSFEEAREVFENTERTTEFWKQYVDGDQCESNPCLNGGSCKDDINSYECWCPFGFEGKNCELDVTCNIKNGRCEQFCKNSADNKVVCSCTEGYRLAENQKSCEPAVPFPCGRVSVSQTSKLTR
row,IC50,SMILES
1,6.68 nM,Cc1ccc(F)c2nc(C(CNC(=O)c3ccc(-n4cnnc4)cc3Cl)c3ccccc3)[nH]c(=O)c12 (centres unmarked) [Example 101]
2,10.7 nM,Cc1ncn(-c2ccc(C(=O)NC[C@@H](c3ccccc3)c3nc4c(F)ccc(C)c4c(=O)[nH]3)c(Cl)c2)n1 [Example 102]
3,6.35 nM,Cc1ncn(-c2ccc(C(=O)NC[C@@H](c3cccc(F)c3)c3nc4c(F)ccc(C)c4c(=O)[nH]3)c(Cl)c2)n1 [Example 103]
4,1.97 nM,O=C(O)c1ccc2ncn(-c3ccc(C(=O)NCC(c4cccc(F)c4)c4nc5c(F)ccc(Cl)c5c(=O)[nH]4)c(Cl)c3)c2c1 (centres unmarked) [Example 104]
5,3.32 nM,O=C(O)c1ccc2c(c1)ncn2-c1ccc(C(=O)NCC(c2cccc(F)c2)c2nc3c(F)ccc(Cl)c3c(=O)[nH]2)c(Cl)c1 (centres unmarked) [Example 105]
6,8.5 nM,Cc1ccc(F)c2nc([C@@H](CNC(=O)c3ccc(-c4ccnnc4)cc3Cl)c3cccc(F)c3)[nH]c(=O)c12 [Example 106]
7,7.3 nM,Cc1ccc(F)c2nc([C@@H](CNC(=O)c3ccc(-n4cnc(CCO)c4)cc3Cl)c3cccc(F)c3)[nH]c(=O)c12 [Example 107]
8,9.2 nM,Cc1ccc(F)c2nc([C@@H](CNC(=O)c3ccc(-c4ccc(=O)n(C)c4)cc3Cl)c3cccc(F)c3)[nH]c(=O)c12 [Example 108]
9,1.8 nM,Cc1ccc(F)c2nc([C@@H](CNC(=O)c3ccc(-n4cnn(C)c4=O)cc3Cl)c3cccc(F)c3)[nH]c(=O)c12 [Example 109]
10,8.9 nM,Cc1ncn(-c2cc(Cl)c(C(=O)NC[C@@H](c3cccnc3)c3nc4c(F)ccc(C)c4c(=O)n3C)c(Cl)c2)n1 [Example 110]
11,9.6 nM,Cc1ccc(F)c2nc([C@@H](CNC(=O)c3ccc(-n4cnnc4C(F)F)cc3Cl)c3cccc(F)c3)[nH]c(=O)c12 [Example 111]
12,10.4 nM,Cc1ncn(-c2cc(Cl)c(C(=O)NC[C@@H](c3cccc(F)c3)c3ccc4c(C)ccc(F)c4n3)c(Cl)c2)n1 [Example 113]
13,52.2 nM,COc1cc([C@@H](CNC(=O)c2c(Cl)cc(-n3cnc(C)n3)cc2Cl)c2cccc(F)c2)nc2c(F)ccc(C)c12 [Example 114]
14,51.1 nM,Cc1ncn(-c2cc(Cl)c(C(=O)NCC(c3cccc(F)c3)c3nc4cc(C)c(C)cc4[nH]c3=O)c(Cl)c2)n1 (centres unmarked) [Example 116]
